Literature values in US20120171239A1, “Immunogenic Conjugates for Producing Immune Responses to Drugs of Abuse and Methods of Use” (priority 2009, published 2012).

System: D2
Conditions: i.v. injection of 1.0 mg/kg cocaine, PET

SMILES: COC(=O)[C@H]1[C@@H](OC(=O)c2ccccc2)C[C@@H]2CC[C@H]1N2C [cocaine]
- reduction of FCP uptake: ≤ 40%
